Results taken from BigSolDB 2.1.

Cl.N=C(N=C(N)N)N1CCOCC1
solubility (mole fraction)
Conditions | 283.15 K | 293.15 K | 303.15 K | 313.15 K | 323.15 K
in acetone | 1.9e-05 | 3.3e-05 | 6.2e-05 | 0.000107 | 0.000186
in acetonitrile | 9.1e-05 | 0.000106 | 0.000117 | 0.000128 | 0.000149
in ethanol | 0.0023 | 0.00283 | 0.00356 | 0.00461 | 0.00615
in ethyl acetate | 7.7e-05 | 9.7e-05 | 0.000117 | 0.000138 | 0.000161
in isobutanol | 0.000621 | 0.000696 | 0.000915 | 0.00124 | 0.00157
in isopropanol | 0.000482 | 0.00062 | 0.00079 | 0.001 | 0.00124
in methanol | 0.013 | 0.0215 | 0.0268 | 0.0341 | 0.0423
in n-butanol | 0.000682 | 0.000834 | 0.00101 | 0.00137 | 0.00184
in n-pentanol | 0.00045 | 0.000545 | 0.00061 | 0.000729 | 0.000967
in n-propanol | 0.0011 | 0.00136 | 0.00161 | 0.00206 | 0.00279
in sec-butanol | 0.000297 | 0.000358 | 0.000445 | 0.000534 | 0.000732
in water | 0.0565 | 0.0653 | 0.0853 | 0.105 | 0.127
